Tests used:
RORγ-LBD (RORγt) = target: T1, RORγ-LBD (RORγt) (Homo sapiens, UniProt P51449); assay: TR-FRET RORγt Binding Assay; details: 6-His(GST)RORγ-LBD, SRC1_2 peptide, read-out: RORγt Binding
T1 construct: the 6-His-(GST) RORγ-LBD was used which expressed and purified from baculovirus infected Sf-21 insect cells; made in house; host or cells: baculovirus-infected Sf-21 insect cells
T1 sequence (P51449 269-508 limits assumed): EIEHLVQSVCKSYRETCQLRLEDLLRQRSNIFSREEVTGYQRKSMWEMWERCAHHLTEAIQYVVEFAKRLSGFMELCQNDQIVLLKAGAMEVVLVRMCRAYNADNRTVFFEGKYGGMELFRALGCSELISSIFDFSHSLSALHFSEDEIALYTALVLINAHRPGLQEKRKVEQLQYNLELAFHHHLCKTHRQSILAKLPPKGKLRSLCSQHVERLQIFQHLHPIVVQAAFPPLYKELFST
Method: TR-FRET RORγt Binding Assay: RORγ-LBD contains a 6-His and GST tag peptide from SRC1-2 an aminoterminal biotinyl-[…] was employed and the 6-His-(GST) RORγ-LBD was used which expressed and purified from baculovirus infected Sf-21 insect cells from Invitrogen and purified using glutathione sepharose. […] The peptide binding due to dose-curves of compounds was added the 0.1% DMSO. Fluorescence at wavelength 340 nm was read in each well of […] using an Envision fluorescence reader in Time Resolved mode after overnight incubation at 4° C.

RORγt = target: T2, RORγt (Homo sapiens, UniProt P51449); assay: RORγt-activated IL-17A Prom/LUCPorter HEK 293 cells luciferase reporter assay; type: cell-based; details: IL-17A Prom/LUCPorter HEK 293 cells transfected with RORγt, 16 h; read-out: RORγt Cell Specific
T2 construct: host or cells: IL-17A Prom/LUCPorter HEK 293 cell line (IMGENEX, IML-301)
T2 sequence (P51449 1-497 isoform P51449-2): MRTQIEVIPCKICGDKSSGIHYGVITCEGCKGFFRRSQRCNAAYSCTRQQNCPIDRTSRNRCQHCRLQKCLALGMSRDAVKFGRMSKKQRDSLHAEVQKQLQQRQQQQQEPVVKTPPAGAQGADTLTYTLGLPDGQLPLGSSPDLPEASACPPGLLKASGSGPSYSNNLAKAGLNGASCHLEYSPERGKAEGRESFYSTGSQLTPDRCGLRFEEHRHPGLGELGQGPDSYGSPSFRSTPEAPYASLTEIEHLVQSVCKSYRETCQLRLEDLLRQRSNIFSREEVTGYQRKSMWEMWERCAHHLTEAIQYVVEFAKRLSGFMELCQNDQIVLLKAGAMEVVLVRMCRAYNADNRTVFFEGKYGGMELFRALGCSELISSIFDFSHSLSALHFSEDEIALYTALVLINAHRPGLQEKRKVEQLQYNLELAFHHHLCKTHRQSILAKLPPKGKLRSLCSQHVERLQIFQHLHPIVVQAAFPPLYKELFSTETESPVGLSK
Method: Antagonistic (or inverse agonistic) effects of the test compounds on the RORγt-activated IL-17A Prom/LUCPorter™ HEK 293 cells were analyzed and IC50 of each compound was evaluated. […] Luciferase activity was analyzed using the luciferase reporter assay reagent (IMGENEX, LS100). The data were analyzed using Excel and Prism software. Percent activity was defined as 100×(1−(Well−Control A)/(Control B−Control A)), where Control A was the wells containing cells transfected with RORγt and Control B was the wells containing non-transfected cells. Both Controls A and B were treated with vehicle alone.

[1] = test system: IL-17 release from CD4+ T cells; assay: Cytokine IL-17 estimation by HTRF, IL-17 release from CD4+ T cells; type: cell-based; details: Homo sapiens, IL-17 release from CD4+ T cells, HTRF, read-out: IL-17 Inhibition
Excerpt: The assay was designed to assess the potency of test compounds on IL-17 cytokine release from CD4+ T cells. In order to aid in the identification of potent inhibitors, the IC50's determined for the test compounds IL-17 release from CD4+ T cells through the generation of 10 point Dose Response Curves (DRC). Assay methods used to quantify IL-17 secretion is HTRF (Homogenous Time Resolved Fluorescence). IL-17 secreted is detected by anti-IL-17 MAb labeled with XL665, the second MAb labeled with Cryptate, which binds to specific epitopes of human IL-17. Upon close proximity of both acceptor and donor energy transfer (FRET) occurs. This technique has been further enhanced by using long-lived labels combined with the detection on a time-resolved fluorescence basis, allowing […] of prompt fluorescence interferences.
The assay was performed according to manufacturer's instruction. All the reagents were reconstituted according to instructions provided. The reagents were dispensed into a half area 96-well plate in the following order: […] or sample, IL-17 MAbXL665 and 5 μL IL-17 Cryptate. For the negative control, the standard or sample is replaced by […]. The plate is covered with a plate sealer and incubated at rt for 2 h. Following incubation, the plate sealer is removed and the plate is read using HTRF protocol on Envision Microplate reader. All of the data analysis was carried out using Microsoft Excel (2010) and IC50 was determined using GraphPad Prism 4 software. % Inhibition of the test compounds were determined utilizing the following formula: % Inhibition=100−(100*(Average Test Compound Counts−Average Negative Control Counts)/(Average Positive Control Counts−Average Negative Control Counts)).
We have established robust in vitro cell-based HTRF assay for the activation and stimulation of CD4+ T lymphocytes to T helper 17 (Th17) cell differentiation and IL-17 production.

SMILES | IC50 (RORγ-LBD (RORγt)) | IC50 (RORγt) | IC50 [1]
COc1cc2c(cc1N1CCN(C)CC1)CC(Cc1ncccc1C(F)(F)F)C2=O (stereo not drawn) [compound 250] | > 1000 nM |  | 
COc1ccc2c(c1OC)CC(Cc1ncccc1C(F)(F)F)C2=O (stereo not drawn) [compound 169] | > 1000 nM | > 1000 nM | < 500 nM
COc1cc2c(cc1N1CCN(C)CC1)CC(Cc1cc(OC(F)(F)F)cc(C(O)(C(F)(F)F)C(F)(F)F)c1)C2=O (stereo not drawn) [compound 236, 2-(3-(1,1,1,3,3,3-hexafluoro-2-hydroxypropan-2-yl)-5-(trifluoromethoxy)benzyl)-6-methoxy-5-(4-methylpiperazin-1-yl)-2,3-dihydro-1H-inden-1-one] | > 1000 nM | > 1000 nM | < 500 nM
COc1cc2c(cc1NC1CCN(C)CC1)CC(Cc1ncccc1C(F)(F)F)C2=O (stereo not drawn) [compound 146] | > 1000 nM | > 1000 nM | < 500 nM
COc1cc2c(cc1N1CCOCC1)CC(Cc1cncc(C(O)(C(F)(F)F)C(F)(F)F)c1)C2=O (stereo not drawn) [compound 245] | > 1000 nM | < 500 nM | > 1000 nM
COc1cc2c(cc1N1CCOCC1)CC(Cc1cc(C(F)(F)F)ccc1NC(=O)C(C)(C)C)C2=O (stereo not drawn) [compound 65, N-(2-((6-methoxy-5-morpholino-1-oxo-2,3-dihydro-1H-inden-2-yl)methyl)-4-(trifluoromethyl)phenyl)pivalamide] | > 10000 nM | > 1000 nM | > 1000 nM
COc1cc2c(cc1N1CCOCC1)CC(Cc1ccc(C(F)(F)F)c(Cl)c1)C2=O (stereo not drawn) [compound 92] | > 1000 nM | > 1000 nM | > 1000 nM
COc1cc2c(cc1N1CCOCC1)CC(Cc1c(Cl)cccc1C(F)(F)F)C2=O (stereo not drawn) [compound 59, 2-(2-chloro-6-(trifluoromethyl)benzyl)-6-methoxy-5-morpholino-2,3-dihydro-1H-inden-1-one] | > 1000 nM | > 10000 nM | > 1000 nM
COc1cc2c(cc1N1CCOCC1)CC(Cc1ccc(C(F)(F)F)nc1)C2=O (stereo not drawn) [compound 71, 6-methoxy-5-morpholino-2-((6-(trifluoromethyl)pyridin-3-yl)methyl)-2,3-dihydro-1H-inden-1-one] | > 10000 nM | > 10000 nM | > 1000 nM
COc1cc2c(cc1N1CCN(C)C(C)C1)CC(CC1CCN(Cc3ccccc3)CC1)C2=O (stereo not drawn) [compound 25, 2-((1-benzylpiperidin-4-yl)methyl)-5-(3,4-dimethylpiperazin-1-yl)-6-methoxy-2,3-dihydro-1H-inden-1-one] |  | > 10000 nM | 
COc1cc2c(cc1NC1CCN(C)CC1)CC(Cc1ccc(SC(F)(F)F)cc1)C2=O (stereo not drawn) [compound 144] | > 1000 nM | > 1000 nM | > 1000 nM
COc1cc2c(cc1N1CCOCC1)CC(Cc1c(F)cccc1F)C2=O (stereo not drawn) [compound 42, 2-(2,6-difluorobenzyl)-6-methoxy-5-morpholino-2,3-dihydro-1H-inden-1-one] | > 1000 nM |  | > 1000 nM
COc1ccc2c(c1OC)CC(Cc1ccc(SC(F)(F)F)cc1)C2=O (stereo not drawn) [compound 167] | > 1000 nM | > 1000 nM | < 500 nM
COc1cc2c(cc1N1CCN(C)CC1)CC(Cc1cccc(C(F)(F)F)c1)C2=O (stereo not drawn) [compound 156] | > 10000 nM | < 500 nM | 
COc1cc2c(cc1N1CCOCC1)CC(Cc1c(F)ccc(NC3CCN(C)CC3)c1F)C2=O (stereo not drawn) [compound 44, 2-(2,6-difluoro-3-((1-methylpiperidin-4-yl)amino)benzyl)-6-methoxy-5-morpholino-2,3-dihydro-1H-inden-1-one] |  |  | > 10000 nM
COc1cc2c(cc1N1CCOCC1)CC(Cc1ccc(C(F)(F)F)nc1)C2=O (stereo not drawn) [compound 83] | > 1000 nM | > 1000 nM | 

The remaining lines, values ahead:

IC50 (RORγ-LBD (RORγt)) | IC50 (RORγt) | IC50 [1] | SMILES
> 1000 nM | > 1000 nM | > 1000 nM | COc1cc2c(cc1N1CCOCC1)CC(Cc1cc(C(F)(F)F)ccc1F)C2=O (stereo not drawn) [compound 77, 2-(2-fluoro-5-(trifluoromethyl)benzyl)-6-methoxy-5-morpholino-2,3-dihydro-1H-inden-1-one]
< 500 nM | > 1000 nM | < 500 nM | COc1cc2c(cc1O)C(=O)C(Cc1ncccc1C(F)(F)F)C2 (stereo not drawn) [compound 190]
> 1000 nM | < 500 nM |  | COc1cc2c(cc1N1CCNCC1)CC(Cc1ncccc1C(F)(F)F)C2=O (stereo not drawn) [compound 249]
< 500 nM |  |  | COc1cc2c(cc1N1CCOCC1)CC(Cc1cncc(C(O)(C(F)(F)F)C(F)(F)F)c1)C2=O (stereo not drawn) [compound 264]
< 500 nM | > 1000 nM | < 500 nM | COc1cc2c(cc1-c1ccccc1OC(F)(F)F)CC(Cc1ncccc1C(F)(F)F)C2=O (stereo not drawn) [compound 213]
> 1000 nM | > 1000 nM | < 500 nM | COc1cc2c(cc1Cl)CC(Cc1ncccc1C(F)(F)F)C2=O (stereo not drawn) [compound 174]
< 500 nM | > 1000 nM | < 500 nM | COc1cc2c(cc1N1CCOCC1)CC(CC1CCN(Cc3ccccc3)CC1)C2=O (stereo not drawn) [compound 23, 2-((1-benzylpiperidin-4-yl)methyl)-6-methoxy-5-morpholino-2,3-dihydro-1H-inden-1-one]
< 500 nM | < 500 nM | > 1000 nM | COc1cc2c(cc1N1CCOCC1)CC(Cc1cc(Br)cc(OC(F)(F)F)c1)C2=O (stereo not drawn) [compound 32, 2-(3-bromo-5-(trifluoromethoxy)benzyl)-6-methoxy-5-morpholino-2,3-dihydro-1H-inden-1-one]
< 500 nM | < 500 nM | < 500 nM | COc1cc2c(cc1N1CCOCC1)CC(Cc1c(F)ccc(C(O)(C(F)(F)F)C(F)(F)F)c1F)C2=O (stereo not drawn) [compound 232, 2-(2,6-difluoro-3-(1,1,1,3,3,3-hexafluoro-2-hydroxypropan-2-yl)benzyl)-6-methoxy-5-morpholino-2,3-dihydro-1H-inden-1-one]
< 500 nM | > 1000 nM | < 500 nM | COc1ccc2c(c1Cl)CC(Cc1ncccc1C(F)(F)F)C2=O (stereo not drawn) [compound 179]
< 500 nM | < 500 nM | < 500 nM | COc1cc2c(cc1N1CCN(C)CC1)CC(Cc1cc(C(F)(F)F)cc(C(O)(C(F)(F)F)C(F)(F)F)c1)C2=O (stereo not drawn) [compound 240, 2-(3-(1,1,1,3,3,3-hexafluoro-2-hydroxypropan-2-yl)-5-(trifluoromethyl)benzyl)-6-methoxy-5-(4-methylpiperazin-1-yl)-2,3-dihydro-1H-inden-1-one]
< 500 nM | < 500 nM | > 1000 nM | COc1cc2c(cc1N1CCN(C)CC1)CC(Cc1cccc(C(F)(F)F)c1Cl)C2=O (stereo not drawn) [compound 110, 2-(2-chloro-3-(trifluoromethyl)benzyl)-6-methoxy-5-(4-methylpiperazin-1-yl)-2,3-dihydro-1H-inden-1-one]
